Source: US20250161201A1, “COSMETIC COMPOSITION” (THE BOOTS COMPANY PLC, priority 2022, published 2025)

Key:
[1] = system: normal human epidermal keratinocytes (NHEK); experiment: Preliminary cytotoxicity assay (WST-8) in keratinocytes; assay type: cell-based; details: 24 hours treatment, WST-8, ingredient on its own
Experimental: Normal human epidermal keratinocytes (NHEK) were seeded in 24-well plates and placed in culture medium (Keratinocyte-serum free media (SFM) supplemented with Epidermal Growth Factor at concentration 0.025 ug/ml and Pituitary extract at concentration of 0.05 mg/ml) for 24 hours. To determine suitable non-toxic ingredient concentrations, a cytotoxicity assay was first carried out where the NHEKs were treated with ingredients or ingredient blends for 24 hours before being incubated with WST-8 (highly water-soluble tetrazolium salt) which is reduced to a water-soluble orange coloured product (formazan) by viable, living cells and is quantified by optical density measurement at 450 nm using a spectrophotometer (VERSAmax, Molecular Devices). This reduction is proportional to the number of living cells and their metabolic activity

[2] = system: Interleukin-8 (IL-8) mRNA; experiment: IL-8 mRNA expression by RT-qPCR in NHEK; assay type: cell-based, human; details: 24 hours, used on its own, vs media only control
Experimental: Interleukin 8 is a measurable biomarker for inflammation. The effectiveness of the presently described compositions in reducing inflammation, and promoting skin barrier repair, are assessed by measuring the reduction in the expression of Interleukin-8 (IL-8) in the skin cells tested. Over expression of IL-8 in the epidermis can lead to disruption of epidermal homeostasis i.e. disruption of the skin cell differentiation, proliferation and desquamation processes.
In the present experiment, the effects of compounds were assessed in normal human epidermal keratinocytes (NHEK). More specifically, the effects of these compounds were evaluated using real time polymerase chain reaction (RT-qPCR) technology. […]
IL-8 mRNA expression was analysed using RT-qPCR as part of this array. […] The amount and quality of mRNA was evaluated using capillary electrophoresis with a Bioanalyzer 2100 (Agilent technologies). […] The cDNA quantities were then diluted if necessary, to achieve equal amount of cDNA concentration in each test sample, before carrying out PCR (Polymerase Chain Reaction) using the LightCycler (trade name) system (commercially available from Roche Molecular System Inc.) according to the supplier's instructions. […] The more copies of DNA/cDNA that have been produced through PCR, the more SYBR Green molecules will bind the DNA/cDNA and the higher the level of fluorescence. […]

## NC(=O)c1cccnc1 [Niacinamide, niacinamide]
[1]
  maximum concentration usable without causing a loss in viability or death of the epidermal keratinocytes: 500 ppm
[2]
  increase of IL-8 mRNA expression: 18%
